Tested on: BT-474 breast cancer xenograft
Assay: Antitumor effect in BT-474 human breast carcinoma xenograft model in nude mice
Assay type: in vivo
Details: BT-474 xenograft, 21 days treatment, i.v.
Description: The estrogen receptor positive cell line BT-474 (ATCC, number HTB-20) which is a human breast carcinoma cell line is used. The cells are grown in DMEM high glucose (4.5 g/l) supplemented with 10% FCS, […] L-glutamine and 1% sodium pyruvate.
In preparation for cell inoculation, each mouse is subcutaneously implanted on the upper dorsal side with a 17β-Estradiol pellet (25 microgram/day; 90 day release) using a trocar needle. BT-474 cells (5×10̂6) are injected in 200 microliter Matrigel:HBSS (1:1 vol) (BD Matrigel™ Basement Membrane Matrix). The injection site is subcutaneously in the right flank. Treatment with compound I is initiated when the average tumor volume reached approximately 100 mm^3 Tumor growth is monitored at regular intervals. The xenograft tumor sizes is measured manually with calipers and the tumor volume is estimated using the formula: […], where width (W) and length (L) are the two largest diameters. Results are presented as mean±SEM. Tumor data are analyzed by ANOVA with post hoc Dunnet's test for comparison of treatment versus control group.
As a measure of efficacy the % T/C value is calculated at the end of the experiment according to:
(Δtumor volumetreated/Δtumor volumecontrol)*100
Where Δtumor volumes represent the mean tumor volume on the evaluation day minus the mean tumor volume at the start of the experiment.
Tumor regression is presented as the relative absolute change in tumor volume from the start to the end of the experiment (−(Tumor volumeevaluation day−Tumor volumestart day)/Tumor volumestart day*100).
The antitumor effect of compound I and trastazumab is evaluated in the BT-474 xenograft model (FIG. 1). The treatment period is 21 days and each treatment group consists of 8 tumor bearing animals. The tumor sizes in the treatment groups are compared to those of the vehicle treated groups and the effect is expressed as % T/C or regression when applicable. […] Compound I is administered i.v. once per week at a dose of 15 mg/kg.

CCNC(=O)c1noc(-c2cc(C(C)C)c(O)cc2O)c1-c1ccc(CN2CCOCC2)cc1 [Compound I, 5-(2,4-Dihydroxy-5-isopropyl-phenyl)-4-(4-morpholin-4-ylmethyl-phenyl)-isoxazole-3-carboxylic acid ethylamide]
antitumor effect in words (comparison with vehicle or single agents): no statistically significant difference from vehicle treated animals | T/C (%) (Trastuzumab 5 mg/kg 2 qw, Compound I 15 mg/kg qw, end of experiment): 96% | reduction of tumor burden (Trastuzumab 5 mg/kg twice per week, Compound I 15 mg/kg qw): 4% | ΔTumor volume (mm^3) (mean ± SEM, Trastuzumab 5 mg/kg 2 qw, Compound I 15 mg/kg qw): 929 ± 152 mm^3

Reference: patent US20120219550A1, “PHARMACEUTICAL COMBINATIONS COMPRISING A PYRIDO [4,3-D] PYRIMIDINE DERIVED HSP90-INHIBITOR AND A HER2 INHIBITOR” (NOVARTIS AG, priority 2008, published 2012)
